Source: article PMC10721329, “Quisinostat is a brain-penetrant radiosensitizer in glioblastoma” (JCI Insight, 2023)
pIC50: −log10 of the molar value. Values joined by “and” are separate entries in the source; they are usually repeats but may differ in a detail not shown here. Equal entries are not always repeated.

What was measured:
Test in all cases: CellTiter-Glo dose-response cell viability assay
Assay type in all cases: cell-based, human
[1] = system: GB71 patient-derived GSC line
Protocol: (§1) QST (JNJ-26481585) is a second-generation hydroxamic acid harboring remarkable selectivity toward class I HDACs, with a biochemical IC50 of 0.1 nM for HDAC1 ([13]). […] To determine the cytotoxic effects of QST, we performed a dose-titration cell viability assay in 7 patient-derived GSC lines (BT145, GB187, GB239, GB282, GB71, GB82, and GB126) and 1 long-term serum-grown human GBM cell line (U87). Because GBMs display a high degree of intratumoral heterogeneity, we used GSCs derived from both primary and recurrent GBMs that harbored distinct genetic mutations or aberrations, growth rates, MGMT promoter methylation status, and gene expression profiles (Supplemental Figure 1; supplemental material available online with this article; https://doi.org/10.1172/jci.insight.167081DS1). Cell lines were treated with various concentrations of QST (10–1000 nM), and cell viability was measured 3–5 days later (Figure 1, A and B). […] Treatment with QST at the IC50 induced significant inhibition of proliferation (Ki67) and an increase in programmed cell death (cleaved caspase 3) in 2 different GSC lines (Figure 1, C and D). Additional analyses confirmed that QST induces apoptosis after short-term treatment through increased staining of the apoptotic marker annexin V (Figure 2A) and cell cycle arrest (in G2- or S-phase; Figure 2B and Supplemental Figure 1B).
(§2) GSCs were seeded in laminin-coated tissue culture–treated 96-well plates (clear bottom, white plate; Corning) at a density of 1000–5000 cells per well (cell line dependent) in GSC media. U87-MG were seeded using their normal growth conditions without laminin (10% bovine calf serum in DMEM). All cells were incubated at 37°C and allowed to adhere overnight. The next day, cells were treated with incremental concentrations of QST (Selleckchem; 0, 10, 25, 50, 100, 250, 500, and 1000 nM) diluted in media. Cells treated without QST were treated with DMSO diluted in media. Following treatment with QST, cells were grown for 3 to 5 days (cell line dependent), and cell viability was measured and quantified. All cell viability measurements were performed using the CellTiter-Glo luminescent cell viability assay (Promega) following the manufacturer’s instructions. For the sulforhodamine B colorimetric assay for cytotoxicity, the protocol was performed as described elsewhere ([33]). All cell viability results represent the mean of at least 3 biological replicates, each containing 3 technical replicates.

[2] = system: BT145 patient-derived GSC line
Protocol: as §1, §2

[3] = system: GB239 patient-derived GSC line
Protocol: as §1, §2

Cn1cc(CNCC2CCN(c3ncc(C(=O)NO)cn3)CC2)c2ccccc21 [QST, quisinostat]
pIC50 ([1]; Homo sapiens, 3-5 days): 7.54 | viability at 0.01 µM ([1]; Homo sapiens, QST 10 nM (log[nM] 1), read-out: Cell viability (fraction of DMSO control)): 76.3% | viability at 0.025 µM ([1]; Homo sapiens, QST 25 nM (log[nM] 1.39794), read-out: Cell viability (fraction of DMSO control)): 68.5% | viability at 0.05 µM ([1]; Homo sapiens, QST 50 nM (log[nM] 1.69897), read-out: Cell viability (fraction of DMSO control)): 59.2% | viability at 0.1 µM ([1]; Homo sapiens, QST 100 nM (log[nM] 2), read-out: Cell viability (fraction of DMSO control)): 46.1% | viability at 0.25 µM ([1]; Homo sapiens, QST 250 nM (log[nM] 2.39794), read-out: Cell viability (fraction of DMSO control)): 31.5% | viability at 0.5 µM ([1]; Homo sapiens, QST 500 nM (log[nM] 2.69897), read-out: Cell viability (fraction of DMSO control)): 24.4% | viability at 1 µM ([1]; Homo sapiens, QST 1000 nM (log[nM] 3), read-out: Cell viability (fraction of DMSO control)): 21.1% | Cell viability (fraction of DMSO control) ([1]; QST 10 nM (log[nM] 1)): 0.687 and 0.6848 | Cell viability (fraction of DMSO control) ([1]; QST 25 nM (log[nM] 1.39794)): 0.6366 and 0.6132 | Cell viability (fraction of DMSO control) ([1]; QST 50 nM (log[nM] 1.69897)): 0.5332 and 0.5323 | Cell viability (fraction of DMSO control) ([1]; QST 100 nM (log[nM] 2)): 0.436 and 0.4247 | Cell viability (fraction of DMSO control) ([1]; QST 250 nM (log[nM] 2.39794)): 0.3077 and 0.3032 | Cell viability (fraction of DMSO control) ([1]; QST 500 nM (log[nM] 2.69897)): 0.2399 and 0.2412 | Cell viability (fraction of DMSO control) ([1]; QST 1000 nM (log[nM] 3)): 0.2213 and 0.2152 | pIC50 ([2]; Homo sapiens, 3-5 days): 7.12 | viability at 0.01 µM ([2]; Homo sapiens, QST 10 nM (log[nM] 1), no IR, read-out: Cell viability (fraction of DMSO control)): 70% | viability at 0.025 µM ([2]; Homo sapiens, QST 25 nM (log[nM] 1.39794), no IR, read-out: Cell viability (fraction of DMSO control)): 64% | viability at 0.05 µM ([2]; Homo sapiens, QST 50 nM (log[nM] 1.69897), no IR, read-out: Cell viability (fraction of DMSO control)): 40% | viability at 0.1 µM ([2]; Homo sapiens, QST 100 nM (log[nM] 2), no IR, read-out: Cell viability (fraction of DMSO control)): 34.2% | viability at 0.25 µM ([2]; Homo sapiens, QST 250 nM (log[nM] 2.39794), no IR, read-out: Cell viability (fraction of DMSO control)): 25.7% | viability at 0.5 µM ([2]; Homo sapiens, QST 500 nM (log[nM] 2.69897), no IR, read-out: Cell viability (fraction of DMSO control)): 18.6% | viability at 1 µM ([2]; Homo sapiens, QST 1000 nM (log[nM] 3), no IR, read-out: Cell viability (fraction of DMSO control)): 13% | Cell viability (fraction of DMSO control) ([2]; QST 10 nM (log[nM] 1), no IR): 0.7896 and 0.7644 | Cell viability (fraction of DMSO control) ([2]; QST 25 nM (log[nM] 1.39794), no IR): 0.7548 and 0.7039 | Cell viability (fraction of DMSO control) ([2]; QST 50 nM (log[nM] 1.69897), no IR): 0.4986 and 0.5266 | Cell viability (fraction of DMSO control) ([2]; QST 100 nM (log[nM] 2), no IR): 0.3524 and 0.2775 | Cell viability (fraction of DMSO control) ([2]; QST 250 nM (log[nM] 2.39794), no IR): 0.3528 and 0.3396 | Cell viability (fraction of DMSO control) ([2]; QST 500 nM (log[nM] 2.69897), no IR): 0.2416 and 0.229 | Cell viability (fraction of DMSO control) ([2]; QST 1000 nM (log[nM] 3), no IR): 0.1715 | Cell viability (fraction of DMSO control) ([3]; GB239x3, QST 10 nM (log[nM] 1)): 0.8159 and 0.818 | Cell viability (fraction of DMSO control) ([3]; GB239x3, QST 25 nM (log[nM] 1.39794)): 0.6846 and 0.6788 | Cell viability (fraction of DMSO control) ([3]; GB239x3, QST 50 nM (log[nM] 1.69897)): 0.5694 and 0.5366 | Cell viability (fraction of DMSO control) ([3]; GB239x3, QST 100 nM (log[nM] 2)): 0.3389 and 0.3234 | Cell viability (fraction of DMSO control) ([3]; GB239x3, QST 250 nM (log[nM] 2.39794)): 0.1954 and 0.198 | Cell viability (fraction of DMSO control) ([3]; GB239x3, QST 500 nM (log[nM] 2.69897)): 0.1408 and 0.1494 | Cell viability (fraction of DMSO control) ([3]; GB239x3, QST 1000 nM (log[nM] 3)): 0.1055 and 0.1137 | viability at 0.01 µM ([3]; Homo sapiens, GB239x3, QST 10 nM (log[nM] 1), read-out: Cell viability (fraction of DMSO control)): 79.7% | viability at 0.025 µM ([3]; Homo sapiens, GB239x3, QST 25 nM (log[nM] 1.39794), read-out: Cell viability (fraction of DMSO control)): 64% | viability at 0.05 µM ([3]; Homo sapiens, GB239x3, QST 50 nM (log[nM] 1.69897), read-out: Cell viability (fraction of DMSO control)): 46.2% | viability at 0.1 µM ([3]; Homo sapiens, GB239x3, QST 100 nM (log[nM] 2), read-out: Cell viability (fraction of DMSO control)): 26% | viability at 0.25 µM ([3]; Homo sapiens, GB239x3, QST 250 nM (log[nM] 2.39794), read-out: Cell viability (fraction of DMSO control)): 15.6% | viability at 0.5 µM ([3]; Homo sapiens, GB239x3, QST 500 nM (log[nM] 2.69897), read-out: Cell viability (fraction of DMSO control)): 11.2% | viability at 1 µM ([3]; Homo sapiens, GB239x3, QST 1000 nM (log[nM] 3), read-out: Cell viability (fraction of DMSO control)): 8.92% | pIC50 ([3]; Homo sapiens, GB239, 3-5 days): 7.39
